Data published in PubChem BioAssay AID1963432 (Molecular Pharmacology Branch, DTP, NCI, 2024).

Tested on: SYO-1 complex spheroid growth, percent test/control
Experiment: Anticancer human tumor SYO-1 cell line growth inhibition [Asc];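 also: compound exposure lasted 7 days after spheroids grew 3 days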;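 as to viability, T/C: 100% = DMSO vehicle control viability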
Details: for IC50: curve of first compound; for viability, T/C: stronger effect = lower value
Method in brief: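 Tumor cells were grown as multicellular spheroids with stromal HUVEC and mesenchymal stem cells and treated singly or in combination. Concentrations fell in half-log steps from the clinical Cmax, or from 10 microM where none was known.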

[1] = second compound 0.0316 µM, first compound 0.00316 µM
[2] = second compound 0.0316 µM, first compound 0.01 µM
[3] = second compound 0.0316 µM, first compound 0.0316 µM
[4] = second compound 0.0316 µM, first compound 0.1 µM
[5] = second compound 0.1 µM, first compound 0.00316 µM
[6] = second compound 0.1 µM, first compound 0.01 µM
[7] = second compound 0.1 µM, first compound 0.0316 µM
[8] = second compound 0.1 µM, first compound 0.1 µM
[9] = second compound 0.316 µM, first compound 0.00316 µM
[10] = second compound 0.316 µM, first compound 0.01 µM
[11] = second compound 0.316 µM, first compound 0.0316 µM
[12] = second compound 0.316 µM, first compound 0.1 µM
[13] = second compound 1 µM, first compound 0.00316 µM
[14] = second compound 1 µM, first compound 0.01 µM
[15] = second compound 1 µM, first compound 0.0316 µM
[16] = second compound 1 µM, first compound 0.1 µM
[17] = second compound 3.16 µM, first compound 0.00316 µM
[18] = second compound 3.16 µM, first compound 0.01 µM
[19] = second compound 3.16 µM, first compound 0.0316 µM
[20] = second compound 3.16 µM, first compound 0.1 µM
[21] = second compound 10 µM, first compound 0.00316 µM
[22] = second compound 10 µM, first compound 0.01 µM
[23] = second compound 10 µM, first compound 0.0316 µM
[24] = second compound 10 µM, first compound 0.1 µM

In the case of `Cn1ncnc1[C@H]1c2n[nH]c(=O)c3cc(F)cc(c23)N[C@@H]1c1ccc(F)cc1` + Cc1c(S(C)(=O)=O)c(-c2cc(F)cc(N3CCN(c4ccc(NS(=O)(=O)c5ccc(NC(CCN6CCC(C(=O)OCCCP(=O)(O)O)CC6)CSc6ccccc6)c(S(=O)(=O)C(F)(F)F)c5)cc4)CC3)c2)c(-c2ccc(Cl)cc2)n1C(C)C, the IC50 (second compound 0.0316 µM) is reported as 19.3 nM, the IC50 (second compound 0.1 µM) is reported as 18.1 nM and the IC50 (second compound 0.316 µM) is reported as 15.3 nM. The IC50 (second compound 1 µM) was 10.2 nM, the IC50 (second compound 3.16 µM) was 5.98 nM and the IC50 (second compound 10 µM) was 4.59 nM. For the same compound, the viability, T/C (second compound 0.0316 µM, first compound 0.000316 µM) was 108%, the viability, T/C (second compound 0.0316 µM, first compound 0.001 µM) was 96.5% and the viability, T/C [1] was 99.6%. It also gave a viability, T/C [2] of 80%, a viability, T/C [3] of 27.4% and a viability, T/C [4] of 6.64%. It also gave a viability, T/C (second compound 0.1 µM, first compound 0.000316 µM) of 97.6%, a viability, T/C (second compound 0.1 µM, first compound 0.001 µM) of 99% and a viability, T/C [5] of 87.1%. For the same compound, the viability, T/C [6] was 85.2%, the viability, T/C [7] was 17.2% and the viability, T/C [8] was 4.83%. For the same compound, the viability, T/C (second compound 0.316 µM, first compound 0.000316 µM) was 97.1%, the viability, T/C (second compound 0.316 µM, first compound 0.001 µM) was 95.4% and the viability, T/C [9] was 94.5%. The viability, T/C [10] was 73.6%, the viability, T/C [11] was 9.3% and the viability, T/C [12] was 3.79%. For the same compound, the viability, T/C (second compound 1 µM, first compound 0.000316 µM) was 93.4%, the viability, T/C (second compound 1 µM, first compound 0.001 µM) was 98.6% and the viability, T/C [13] was 88.6%. For the same compound, the viability, T/C [14] was 51.5%, the viability, T/C [15] was 7.18% and the viability, T/C [16] was 3.35%. The viability, T/C (second compound 3.16 µM, first compound 0.000316 µM) was 97.2%, the viability, T/C (second compound 3.16 µM, first compound 0.001 µM) was 89.5% and the viability, T/C [17] was 80.1%. For the same compound, the viability, T/C [18] was 26%, the viability, T/C [19] was 4.8% and the viability, T/C [20] was 2.64%. It also gave a viability, T/C (second compound 10 µM, first compound 0.000316 µM) of 85.9%, a viability, T/C (second compound 10 µM, first compound 0.001 µM) of 90% and a viability, T/C [21] of 65.6%. It also gave a viability, T/C [22] of 16.4%, a viability, T/C [23] of 3.2% and a viability, T/C [24] of 2.36%.
With `O=C(c1ccc(F)c(F)c1Nc1ccc(I)cc1F)N1CC(O)([C@@H]2CCCCN2)C1` + Cc1c(S(C)(=O)=O)c(-c2cc(F)cc(N3CCN(c4ccc(NS(=O)(=O)c5ccc(NC(CCN6CCC(C(=O)OCCCP(=O)(O)O)CC6)CSc6ccccc6)c(S(=O)(=O)C(F)(F)F)c5)cc4)CC3)c2)c(-c2ccc(Cl)cc2)n1C(C)C the IC50 (second compound 0.0316 µM) was > 1000 nM, the IC50 (second compound 0.1 µM) was > 1000 nM and the IC50 (second compound 0.316 µM) was > 1000 nM. For the same compound, the IC50 (second compound 1 µM) was > 1000 nM, the IC50 (second compound 3.16 µM) was > 1000 nM and the IC50 (second compound 10 µM) was > 1000 nM. It also gave a viability, T/C [1] of 98.2%, a viability, T/C [2] of 102% and a viability, T/C [3] of 106%. For the same compound, the viability, T/C [4] was 99.6%, the viability, T/C (second compound 0.0316 µM, first compound 0.316 µM) was 110% and the viability, T/C (second compound 0.0316 µM, first compound 1 µM) was 113%. For the same compound, the viability, T/C [5] was 95.3%, the viability, T/C [6] was 101% and the viability, T/C [7] was 97.1%. The viability, T/C [8] was 102%, the viability, T/C (second compound 0.1 µM, first compound 0.316 µM) was 103% and the viability, T/C (second compound 0.1 µM, first compound 1 µM) was 99.8%. For the same compound, the viability, T/C [9] was 95.7%, the viability, T/C [10] was 93.6% and the viability, T/C [11] was 94.2%. For the same compound, the viability, T/C [12] was 106%, the viability, T/C (second compound 0.316 µM, first compound 0.316 µM) was 99% and the viability, T/C (second compound 0.316 µM, first compound 1 µM) was 104%. It also gave a viability, T/C [13] of 91.6%, a viability, T/C [14] of 89.5% and a viability, T/C [15] of 100%. The viability, T/C [16] was 98.9%, the viability, T/C (second compound 1 µM, first compound 0.316 µM) was 102% and the viability, T/C (second compound 1 µM, first compound 1 µM) was 97.1%. For the same compound, the viability, T/C [17] was 91.9%, the viability, T/C [18] was 92.1% and the viability, T/C [19] was 87.2%. It also gave a viability, T/C [20] of 99.8%, a viability, T/C (second compound 3.16 µM, first compound 0.316 µM) of 101% and a viability, T/C (second compound 3.16 µM, first compound 1 µM) of 93.4%. For the same compound, the viability, T/C [21] was 85.8%, the viability, T/C [22] was 81.3% and the viability, T/C [23] was 92.2%. The viability, T/C [24] was 85.6%, the viability, T/C (second compound 10 µM, first compound 0.316 µM) was 71.8% and the viability, T/C (second compound 10 µM, first compound 1 µM) was 67.6%.
